Earlier results as cited in patent US6770263B1, “Compositions and methods for the treatment of aches and pains” (NatureWell, Incorporated, priority 2001, dated 2004).

Details: following the administration of 500 mg aspirin

SMILES: CC(=O)Oc1ccccc1C(=O)O [aspirin, acetylsalicylic acid]
- plasma level: 130 µM
